Test results taken from US7691572B2, “Method and kit for detecting resistance to antiviral drugs” (priority 1998, dated 2010).
Like-named read-outs stand apart in the source and are kept apart here.

Key:
HIV-1 reference viruses [1] = details: read-out: IC50 Culture based assay, cited from earlier work
HIV-1 RT [2] = format: biochemical
HIV-1 RT [3] = molecular target: HIV-1 RT (Human immunodeficiency virus type 1, UniProt P04585, Q738M); assay: Amp-RT assay, AZT-TP and other NRTI-TPs, reference viruses; format: biochemical
HIV-1 RT [4] = molecular target: HIV-1 RT (Human immunodeficiency virus type 1, UniProt P04585, A649V/F664L/F703Y/Q738M/V662I); assay: as above; format: biochemical
HIV-1 RT [5] = assay: as above; format: biochemical
HIV-1 RT [6] = molecular target: T1, HIV-1 RT (Human immunodeficiency virus type 1 group M subtype B, UniProt P04585); assay: as above; format: biochemical; details: WT HIV-1SUM9
HIV-1 RT [7] = molecular target: HIV-1 RT (Human immunodeficiency virus type 1, UniProt P04585, F664L/F703Y/Q738M); assay: as above; format: biochemical
patient-derived HIV-1 [8] = details: read-out: IC50 Culture based assay, cited from earlier work
HIV-1 [9] = details: cited from earlier work
HIV-1 [10] = details: classical AZT resistance mutations T215Y/F, M41L, D67N, K70R, K219Q/E; cited from earlier work
HIV-1 RT [11] = molecular target: HIV-1 RT (Human immunodeficiency virus type 1, UniProt P04585, Q738M/S655G); format: biochemical; details: read-out: IC50 Amp-RT assay; patient-derived virus 13 (L2), S68G, Q151M
Text: (§1) Four groups of archived HIV-1 specimens with known genotypes were selected for assay validation. These included WT, MNR, MNR carrying unrelated resistance mutations, and non-MNR specimens carrying classical AZT resistance mutations (Schmit et al., “Multiple drug resistance to nucleoside analogues and nonnucleoside reverse transcriptase inhibitors in an efficiently replicating human immunodeficiency virus type 1 patient strain,” J. Infect. Dis. 174: 962-968 (1996); Winters et al., “A 6-base pair insert in the reverse transcriptase gene of human immunodeficiency virus type 1 confers resistance to multiple nucleoside inhibitors,” J. Clin. Invest. 102: 1769-1775 (1998); Adje et al., “High prevalence of genotypic and phenotypic HIV-1 drug-resistant strains among patients receiving antiretroviral therapy in Abidjan, Cote d'Ivoire,” J. Acquired Immune Deficiency Syndromes 26: 501-506 (2001); Weinstock et al., “Prevalence of mutations associated with reduced antiretroviral drug susceptibility among human immunodeficiency virus type 1 seroconverters in the United States, 1993-1998,” J. Infect. Dis. 182: 330-333 (2000)). Forty-four samples were selected which comprised 7 viral stocks and 37 plasma samples obtained from 34 HIV-1-infected persons.

HIV-1 RT [12] = molecular target: HIV-1 RT (Human immunodeficiency virus type 1, UniProt P04585, F664L/S655G/V662I, form not given); format: biochemical; details: read-out: IC50 Amp-RT assay; patient-derived virus 15 (L6), S68G, V75I, F77L, K103N, F116Y, Q151M, M184V
Text: as §1

HIV-1 RT [13] = format: biochemical; remark: listed apart in the source
Text: as §1

HIV-1 RT [14] = molecular target: HIV-1 RT (Human immunodeficiency virus type 1, UniProt P04585, S655G/V662I, form not given); format: biochemical; details: read-out: IC50 Amp-RT assay; patient-derived virus 14 (L4), A62A/V, S68G, V75I, F77L, F116Y, Q151M
Text: as §1

HIV-1 RT [15] = molecular target: T1, HIV-1 RT; format: biochemical; details: read-out: IC50 Amp-RT assay; patient-derived virus 12 (L1), None
Text: as §1

HIV-1 RT [16] = details: cited from earlier work
patient-derived HIV-1 [17] = assay: culture-based plaque reduction assay (Schmit et al., 1996); format: cell-based
Text: The results obtained are correlated with the genotypes of the specimens.

HIV-1 reference viruses [18] = assay: culture-based assay, inhibition of HIV-1-induced cytopathic effect; format: cell-based
Text: The IC50 values of AZT-TP for WT and MNR reference viruses determined by the Amp-RT assay were compared with previously reported IC50 values determined by a conventional RT assay and a culture-based phenotypic assay (Ueno et al., “Enzymatic characterization of human immunodeficiency virus type 1 reverse transcriptase resistant to multiple 2′,3′-dideoxynucleoside 5′-triphosphates,” J. Biol, Chem. 270: 23605-23611 (1995); Shirasaka et al., “Emergence of human immunodeficiency virus type 1 variants with resistance to multiple dideoxynucleosides in patients receiving therapy with dideoxynucleosides,” Proc. Nat. Acad. Sci. U.S.A. 92: 2398-2402 (1995)).

[19] = HIV1SUM13 (A62V, V75I, F77L, F116Y, Q151M)

Cc1cn([C@H]2C[C@H](N=[N+]=[N-])[C@@H](CO)O2)c(=O)[nH]c1=O [AZT, zidovudine]
IC50 (HIV-1 reference viruses [1]; HIV1SUM8 (Q151M)): 5 µM
IC50 (HIV-1 reference viruses [1]; HIV1SUM9 (None)): 0.5 µM
IC50 (HIV-1 reference viruses [1]; HIV1SUM12 (F77L, F116Y, Q151M)): > 160 µM
IC50 (HIV-1 reference viruses [1]; [19]): > 160 µM
fold change from IC50 of WT HIV-1, RT assay (HIV-1 RT [2]; HIV1SUM8 (Q151M)): (8.3) fold
fold change from IC50 of WT HIV-1, RT assay (HIV-1 RT [2]; HIV1SUM12): (38) fold
fold change from IC50 of WT HIV-1, RT assay (HIV-1 RT [2]; HIV1SUM13): (65) fold
IC50 (HIV-1 RT [3]): 2.5 µM
IC50 (HIV-1 RT [4]): 18 µM
fold resistance (IC50) as compared to the mean IC values of WT HIV-1 (HIV-1 RT [5]; MNR HIV-1SUM8 (Q151M)): (5) fold
fold resistance (IC50) as compared to the mean IC values of WT HIV-1 (HIV-1 RT [5]; MNR HIV-1SUM12 (F77L, F116Y, Q151M)): (22) fold
fold resistance (IC50) as compared to the mean IC values of WT HIV-1 (HIV-1 RT [5]; MNR HIV-1SUM13 (A62V, V75I, F77L, F116Y, Q151M)): (36) fold
IC50 (HIV-1 RT [6]): 0.5 µM
IC50 (HIV-1 RT [7]): 11 µM
IC50 (patient-derived HIV-1 [8]; 12 (L1), None): 0.006 µM
IC50 (patient-derived HIV-1 [8]; 13 (L2), S68G, Q151M): 0.009 µM
IC50 (patient-derived HIV-1 [8]; 14 (L4), A62A/V, S68G, V75I, F77L, F116Y, Q151M): 3.8 µM
IC50 (patient-derived HIV-1 [8]; 15 (L6), S68G, V75I, F77L, K103N, F116Y, Q151M, M184V): 18.7 µM
reduced susceptibility to AZT (HIV-1 [9]; plasma sample HIV-1R598 (D67N, V106A, L214W, L214F, T215Y)): 100 fold
reduced susceptibility to AZT (HIV-1 [9]; specimen no. 40 (T215Y, T69S-EA insertions)): 100 fold
resistance to AZT (HIV-1 [10]): > 100 fold
IC50 (HIV-1 RT [11]): 1.35 µM
IC50 (HIV-1 RT [12]): 14.6 µM
fold change from IC50 of WT HIV-1, Amp-RT assay (HIV-1 RT [13]; patient-derived virus 13 (L2)): (3.9) fold
fold change from IC50 of WT HIV-1, Amp-RT assay (HIV-1 RT [13]; patient-derived virus 14 (L4)): (23.5) fold
fold change from IC50 of WT HIV-1, Amp-RT assay (HIV-1 RT [13]; patient-derived virus 15 (L6)): (41.8) fold
IC50 (HIV-1 RT [14]): 8.23 µM
IC50 (HIV-1 RT [15]): 0.35 µM
IC50 (HIV-1 RT [16]; HIV1SUM8 (Q151M)): 0.19 µM
IC50 (HIV-1 RT [16]; HIV1SUM9 (None)): 0.023 µM
IC50 (HIV-1 RT [16]; HIV1SUM12 (F77L, F116Y, Q151M)): 0.88 µM
IC50 (HIV-1 RT [16]; [19]): 1.5 µM
fold change from IC50 of WT HIV-1, Culture based assay (patient-derived HIV-1 [17]; 13 (L2)): (1.5) fold
fold change from IC50 of WT HIV-1, Culture based assay (patient-derived HIV-1 [17]; 14 (L4)): (633) fold
fold change from IC50 of WT HIV-1, Culture based assay (patient-derived HIV-1 [17]; 15 (L6)): (3117) fold
fold change from IC50 of WT HIV-1, Culture based assay (HIV-1 reference viruses [18]; HIV1SUM8): (10) fold
fold change from IC50 of WT HIV-1, Culture based assay (HIV-1 reference viruses [18]; HIV1SUM12): (>320) fold
fold change from IC50 of WT HIV-1, Culture based assay (HIV-1 reference viruses [18]; HIV1SUM13): (>320) fold
